Data as given in patent publication US6166290A, “Glutathione-S-conjugate transport in plants” (The Trustees of the University of Pennsylvania, priority 1997, dated 2000).
Where “and” joins values, the source holds several entries; their conditions need not be identical. Equal entries are not always repeated. Values belong to the molecule of their own block, whether it stands above or below them.

Assays:
[1] = target: T1, YCF1 (vacuolar membrane vesicles purified from DTY165 cells) (Saccharomyces cerevisiae, UniProt P39109); assay: biochemical; type: biochemical
T1 construct: endogenous in cells; host or cells: S. cerevisiae DTY165 (wild type YCF1), vacuolar membrane vesicles
T1 sequence (P39109 whole entry): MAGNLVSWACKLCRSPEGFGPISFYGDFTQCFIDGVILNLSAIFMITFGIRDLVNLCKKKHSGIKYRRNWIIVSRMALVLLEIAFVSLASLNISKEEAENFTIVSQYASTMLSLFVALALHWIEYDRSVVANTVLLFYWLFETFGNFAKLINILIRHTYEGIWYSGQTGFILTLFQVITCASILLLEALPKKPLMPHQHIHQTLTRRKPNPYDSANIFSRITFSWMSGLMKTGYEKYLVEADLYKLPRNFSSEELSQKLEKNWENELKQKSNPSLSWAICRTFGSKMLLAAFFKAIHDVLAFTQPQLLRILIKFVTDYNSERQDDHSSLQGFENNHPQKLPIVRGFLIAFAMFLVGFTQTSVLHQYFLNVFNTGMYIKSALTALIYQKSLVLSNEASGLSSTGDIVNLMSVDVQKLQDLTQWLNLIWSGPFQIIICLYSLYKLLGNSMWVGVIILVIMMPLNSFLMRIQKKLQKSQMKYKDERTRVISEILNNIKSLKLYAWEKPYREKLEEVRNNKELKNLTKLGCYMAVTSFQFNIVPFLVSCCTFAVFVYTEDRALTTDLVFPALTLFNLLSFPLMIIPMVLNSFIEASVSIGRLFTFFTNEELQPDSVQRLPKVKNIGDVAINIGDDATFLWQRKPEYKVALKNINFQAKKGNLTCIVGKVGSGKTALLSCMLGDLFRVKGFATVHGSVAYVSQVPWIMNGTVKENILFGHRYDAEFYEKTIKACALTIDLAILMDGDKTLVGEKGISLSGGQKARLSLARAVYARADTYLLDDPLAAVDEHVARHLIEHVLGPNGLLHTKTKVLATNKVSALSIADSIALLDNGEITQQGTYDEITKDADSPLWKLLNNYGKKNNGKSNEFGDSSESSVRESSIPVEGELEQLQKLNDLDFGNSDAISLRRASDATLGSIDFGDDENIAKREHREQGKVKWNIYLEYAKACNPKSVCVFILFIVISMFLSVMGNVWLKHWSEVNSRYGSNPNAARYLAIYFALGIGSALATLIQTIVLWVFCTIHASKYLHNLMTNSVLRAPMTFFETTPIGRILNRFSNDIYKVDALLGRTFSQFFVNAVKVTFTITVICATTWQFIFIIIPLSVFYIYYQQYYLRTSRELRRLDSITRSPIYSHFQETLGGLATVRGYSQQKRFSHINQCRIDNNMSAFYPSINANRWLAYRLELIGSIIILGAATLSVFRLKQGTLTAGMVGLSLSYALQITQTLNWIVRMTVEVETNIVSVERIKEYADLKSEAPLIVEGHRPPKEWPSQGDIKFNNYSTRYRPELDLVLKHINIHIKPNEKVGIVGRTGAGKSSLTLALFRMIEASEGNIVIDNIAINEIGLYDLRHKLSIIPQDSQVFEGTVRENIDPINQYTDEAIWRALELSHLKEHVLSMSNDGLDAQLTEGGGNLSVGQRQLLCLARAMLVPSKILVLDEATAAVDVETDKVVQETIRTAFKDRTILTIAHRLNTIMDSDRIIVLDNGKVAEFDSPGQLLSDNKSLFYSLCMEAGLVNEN
Procedure: (§1) In experiments involving cadmium transport, dithiothreitol and EGTA were removed from the suspension medium to prevent the attenuation of YCF1-dependent Cd^2+ transport otherwise exerted by these compounds. Vesiculated vacuolar membranes were subjected to three cycles of 50-fold dilution into simplified suspension medium (1.1 M glycerol, 5 mM Tris-Mes, pH 8.0), centrifugation at 100,000× g for 35 minutes and resuspension in the same medium before use.
(§2) Singly radiolabeled ^109 Cd.GSn and doubly radio-labeled ^109 Cd[^3 H].GS^n complexes were prepared by sequential gel-filtrationand anion-exchange chromatography of the reaction products generated by incubating 20 mM ^109 CdSO4 (78.4 mCi/mmol) with 40 mM GSH or 40 mM [^3 H]GSH (240 mCi/mmol) in 15 ml 10 mM phosphate buffer (pH 8.0) containing 150 mM KNO3 at 45° C. for 24 hours. For gel-filtration, 2 ml aliquots of the reaction mixture were applied to a column (40×1.5 cm ID) packed with water-equilibrated Sephadex G-1 5, eluted with deionized water and ^109 Cd and/or ^3 H in the fractions was measured by liquid scintillation counting. The fractions encompassed by each of the two ^109 Cd.GSn peaks identified were pooled, lyophilized and redissolved in 4 ml of loading buffer (5 mM Tris-Mes, pH 8.0). For anion-exchange chromatography, 0.5 ml aliquots of the resuspended lyophilizates from gel-filtration chromatography were applied to a Mono-Q HR5/5 column (Pharmacia) equilibrated with the same buffer. Elution was with a linear gradient of NaCl (0.5 ml/minute; 0-500 mM) dissolved in loading buffer. The individual fractions corresponding to the major peaks of ^109 Cd obtained from the Mono-Q column (one each for the peaks resolved by gel-filtration chromatography) were pooled, lyophilized and resuspended in 4 ml deionized water after liquid scintillation counting.
(§3) MgATP-energized, uncoupler-insensitive ^109 Cd^2+ uptake by vacuolar membrane vesicles was measured at 25° C. in 200 μl reaction volumes containing 3 mM ATP, 3 mM MgSO4, 5 μM gramicidin-D, 10 mM creatine phosphate, 16 units/ml creatine kinase, 50 mM KCl, 400 mM sorbitol, 25 mM Tris-Mes (pH 8.0) and the indicated concentrations of ^109 CdSO4, GSH or ^109 Cd- and/or ^3 H-labeled purified Cd.GSn complexes as described herein except that the wash media contained 100 μM CdSO4 in addition to sorbitol (400 mM) and Tris-Mes (3 mM, pH 8.0).

AtMRP2 = target: T2, AtMRP2 (Arabidopsis thaliana, UniProt Q42093); assay: AtMRP2-dependent uptake by membrane vesicles from pYES3-AtMRP2-transformed DTY168 cells; type: biochemical
T2 construct: S. cerevisiae DTY168 (ycf1 null) vacuolar-enriched membrane vesicles
T2 sequence (Q42093 whole entry): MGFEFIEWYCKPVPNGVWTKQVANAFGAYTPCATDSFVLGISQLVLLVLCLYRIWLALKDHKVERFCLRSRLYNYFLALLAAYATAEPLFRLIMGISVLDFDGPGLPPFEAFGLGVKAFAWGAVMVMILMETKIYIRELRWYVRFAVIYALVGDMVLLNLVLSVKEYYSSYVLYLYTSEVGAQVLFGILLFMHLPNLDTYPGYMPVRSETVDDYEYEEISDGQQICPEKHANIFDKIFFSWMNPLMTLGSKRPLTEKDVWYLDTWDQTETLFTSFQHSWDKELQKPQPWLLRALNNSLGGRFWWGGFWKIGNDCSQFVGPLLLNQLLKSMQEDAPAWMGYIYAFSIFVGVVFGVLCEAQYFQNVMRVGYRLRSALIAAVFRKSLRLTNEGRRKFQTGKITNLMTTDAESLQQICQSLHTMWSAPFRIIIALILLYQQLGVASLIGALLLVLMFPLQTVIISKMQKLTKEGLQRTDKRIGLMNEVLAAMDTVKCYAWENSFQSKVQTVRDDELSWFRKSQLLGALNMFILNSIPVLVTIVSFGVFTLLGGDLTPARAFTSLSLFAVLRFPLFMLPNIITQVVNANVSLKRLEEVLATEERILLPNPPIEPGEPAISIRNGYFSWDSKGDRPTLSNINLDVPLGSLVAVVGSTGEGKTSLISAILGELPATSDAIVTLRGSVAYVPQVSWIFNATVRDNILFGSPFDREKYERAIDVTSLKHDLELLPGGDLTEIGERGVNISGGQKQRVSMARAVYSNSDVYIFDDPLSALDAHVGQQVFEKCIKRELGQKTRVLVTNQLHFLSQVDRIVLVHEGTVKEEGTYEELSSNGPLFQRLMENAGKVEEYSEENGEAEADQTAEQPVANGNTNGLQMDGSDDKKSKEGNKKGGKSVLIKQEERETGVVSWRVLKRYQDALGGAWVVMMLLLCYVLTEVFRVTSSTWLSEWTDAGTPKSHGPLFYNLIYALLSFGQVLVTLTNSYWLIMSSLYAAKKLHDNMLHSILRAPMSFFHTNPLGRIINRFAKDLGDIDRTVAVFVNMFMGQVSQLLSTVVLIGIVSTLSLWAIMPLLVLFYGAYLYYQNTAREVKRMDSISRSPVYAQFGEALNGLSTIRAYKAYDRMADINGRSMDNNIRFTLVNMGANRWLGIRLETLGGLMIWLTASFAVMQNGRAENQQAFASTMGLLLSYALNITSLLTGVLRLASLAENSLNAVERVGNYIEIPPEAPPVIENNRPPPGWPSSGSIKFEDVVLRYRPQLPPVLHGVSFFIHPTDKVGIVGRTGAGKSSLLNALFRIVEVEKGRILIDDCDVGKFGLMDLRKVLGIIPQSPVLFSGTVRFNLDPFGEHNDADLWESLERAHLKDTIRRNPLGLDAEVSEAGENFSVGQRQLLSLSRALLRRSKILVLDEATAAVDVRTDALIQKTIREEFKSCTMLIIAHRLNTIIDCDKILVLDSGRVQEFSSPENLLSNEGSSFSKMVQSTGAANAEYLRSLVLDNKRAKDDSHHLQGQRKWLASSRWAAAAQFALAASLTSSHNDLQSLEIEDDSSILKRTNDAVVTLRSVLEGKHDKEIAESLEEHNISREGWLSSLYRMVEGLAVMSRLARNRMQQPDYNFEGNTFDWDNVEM
Procedure: (§4) Cells were grown and vacuolar membrane-enriched vesicles were prepared as described (Kim et al., 1995, J Biol. Chem. 270:2630-2635-). […] Uptake was terminated by the addition of 1 ml ice-cold wash medium (400 mM sorbitol/3 mM Tris-Mes, pH 8.0) and vacuum filtration of the suspension through prewetted Millipore HA cellulose nitrate filters (pore size 0.45 μm). The filters were rinsed twice with wash medium, and the retained radioactivity was determined by liquid scintillation counting. Nonenergized uptake was estimated by the same procedure except that ATP was omitted from the uptake medium.
Membranes from DTY168/pYES3-AtMRP2 cells were incubated for 10 minutes in standard uptake medium containing 61.3 μM [^3 H]DNP-GS after which time 200 mM glucose and 50 units/ml hexokinase (Type F-300 from baker's yeast) were added. […] Control samples were treated identically except that no additions were made after the initial 10 minute incubation period.

[2] = test system: vacuolar membrane vesicles purified from DTY167 cells (ycf1Δ mutant); type: biochemical, Saccharomyces cerevisiae
Procedure: (§5) For the routine preparation of vacuolar membrane vesicles, 15 ml of stationary phase cultures of DTY165 or DTY167 were diluted into 1-liter volumes of fresh YPD medium, grown for 24 hours at 30° C. to an OD600 nm of approximately 0.8 and collected by centrifugation. After washing with distilled water, the cells were converted to spheroplasts with Zymolyase 20T (ICN) (Kim et al., 1994, supra) and intact vacuoles were isolated by flotation centrifugation of spheroplast lysates on Ficoll 400 step gradients as described by Roberts et al. (1991, Methods. Enzymol. 194:644-661). Both the spheroplast lysis buffer and Ficoll gradients contained 2 mg/ml bovine serum albumin, 1 μg/ml aprotinin, 1 μg/ml leupeptin, 1 μg/ml pepstatin, and 1 mM PMSF to minimize proteolysis. The resulting vacuole fraction was vesiculated in 5 mM MgCl2, 25 mM KCl, 10 mM Tris-Mes (pH 6.9) containing 2 mg/ml bovine serum albumin, 1 μg/ml aprotinin, 1 μg/ml leupeptin, 1 μg/ml pepstatin, and 1 mM PMSF, pelleted by centrifugation at 37,000× g for 25 min, and resuspended in suspension medium (1.1 M glycerol, 2 mM dithiothreitol, 1 mM Tris-EGTA, 2 mg/ml bovine serum albumin, 1 μg/ml aprotinin, 1 μg/ml leupeptin, 1 μg/ml pepstatin, 1 mM PMSF, 5 mM Tris-Mes, pH 7.6) (Kim et al., 1995, J. Biol. Chem. 270:2630-2635).
(§6) Unless otherwise indicated, [^3 H]DNP-GS uptake was measured at 25° C. in 200 μl reaction volumes containing 3 mM ATP, 3 mM MgSO4, 5 μM gramicidin-D, 10 mM creatine phosphate, 16 units/ml creatine kinase, 50 mM KC 1, 1 mg/ml bovine serum albumin, 400 mM sorbitol, 25 mM Tris-Mes (pH 8.0), and 66.2 μM [^3 H]DNP-GS (8.7 mCi/mmol) (Li et al., 1995, supra). […] Uptake was initiated by the addition of vacuolar membrane vesicles (10-15 μg of membrane protein), brief mixing of the samples on a vortex mixer and uptake was then allowed to proceed for 1-60 minutes. Uptake was terminated by the addition of 1 ml of ice-cold wash medium (400 mM sorbitol, 3 mM Tris-Mes, pH 8.0) and vacuum filtration of the suspension through prewetted Millipore HA cellulose nitrate membrane filters (pore diameter, 0.45 μm). The filters were rinsed twice with 1 ml of ice-cold wash medium and air-dried, and radioactivity was determined by liquid scintillation counting in BCS mixture (Amersham Corp.). Nonenergized [^3 H]DNP-GS uptake and extravesicular solution trapped on the filters were enumerated by the same procedure except that ATP and Mg^2 +were omitted from the uptake medium.

AtMRP1 = target: T3, AtMRP1 (Arabidopsis thaliana, UniProt Q9C8G9); assay: AtMRP1-dependent uptake by membrane vesicles from pYES3-AtMRP1-transformed DTY168 cells; type: biochemical; parameters: rate of C3G-GS uptake: unit not given here
T3 construct: S. cerevisiae DTY168 (ycf1 null) vacuolar-enriched membrane vesicles
T3 sequence (Q9C8G9 whole entry): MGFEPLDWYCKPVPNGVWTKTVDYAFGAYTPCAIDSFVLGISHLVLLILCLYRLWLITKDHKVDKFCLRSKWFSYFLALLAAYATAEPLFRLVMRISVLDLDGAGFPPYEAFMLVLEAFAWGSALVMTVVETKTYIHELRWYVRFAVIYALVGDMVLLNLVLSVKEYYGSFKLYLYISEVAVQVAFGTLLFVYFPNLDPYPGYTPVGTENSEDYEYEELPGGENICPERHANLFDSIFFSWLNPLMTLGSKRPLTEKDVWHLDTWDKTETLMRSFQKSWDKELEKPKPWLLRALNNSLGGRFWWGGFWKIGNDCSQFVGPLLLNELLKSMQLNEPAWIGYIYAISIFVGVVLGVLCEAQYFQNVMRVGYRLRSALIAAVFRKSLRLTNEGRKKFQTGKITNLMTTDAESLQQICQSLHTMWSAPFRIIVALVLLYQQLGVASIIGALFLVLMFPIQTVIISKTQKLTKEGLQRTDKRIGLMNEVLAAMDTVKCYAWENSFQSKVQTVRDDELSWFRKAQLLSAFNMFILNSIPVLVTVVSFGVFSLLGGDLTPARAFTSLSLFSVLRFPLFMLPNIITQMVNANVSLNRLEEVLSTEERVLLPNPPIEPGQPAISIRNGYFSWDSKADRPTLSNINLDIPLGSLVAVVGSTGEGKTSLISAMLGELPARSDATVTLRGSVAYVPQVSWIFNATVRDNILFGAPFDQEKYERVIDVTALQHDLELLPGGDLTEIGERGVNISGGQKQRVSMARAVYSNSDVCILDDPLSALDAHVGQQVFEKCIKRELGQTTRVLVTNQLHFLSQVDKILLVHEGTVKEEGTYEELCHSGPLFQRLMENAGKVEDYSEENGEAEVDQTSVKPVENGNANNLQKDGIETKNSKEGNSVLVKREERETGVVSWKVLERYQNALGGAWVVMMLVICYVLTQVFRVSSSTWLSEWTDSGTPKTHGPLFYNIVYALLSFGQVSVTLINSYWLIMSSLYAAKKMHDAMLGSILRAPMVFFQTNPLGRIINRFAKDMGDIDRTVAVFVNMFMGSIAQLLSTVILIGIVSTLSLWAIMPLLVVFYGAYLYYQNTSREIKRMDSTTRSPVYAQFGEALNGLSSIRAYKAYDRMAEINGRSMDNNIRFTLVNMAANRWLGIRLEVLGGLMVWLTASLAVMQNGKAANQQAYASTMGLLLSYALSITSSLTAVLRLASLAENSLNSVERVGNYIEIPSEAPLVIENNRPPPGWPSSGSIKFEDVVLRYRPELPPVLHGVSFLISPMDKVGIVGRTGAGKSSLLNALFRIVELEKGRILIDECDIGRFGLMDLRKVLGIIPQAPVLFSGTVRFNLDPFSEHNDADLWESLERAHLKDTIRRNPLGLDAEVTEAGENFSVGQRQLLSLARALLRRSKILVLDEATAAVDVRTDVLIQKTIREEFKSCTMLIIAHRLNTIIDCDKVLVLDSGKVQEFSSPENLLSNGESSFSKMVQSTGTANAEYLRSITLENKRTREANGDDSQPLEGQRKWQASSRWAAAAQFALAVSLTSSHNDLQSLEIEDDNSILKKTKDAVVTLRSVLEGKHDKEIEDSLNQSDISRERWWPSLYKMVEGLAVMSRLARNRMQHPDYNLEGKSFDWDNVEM
Procedure: S. cerevisiae strain DTY168 (MATα his6, leu2-3, -112, ura3-52 ycf1::hisG) was transformed with pYES3-AtMRP1 or empty vector lacking the AtMRP1 insert (pYES3) by the LiOAc/PEG method (Giest et al., 1991, Yeast 7:253-263) and selected for uracil prototrophy by plating on AHC medium containing tryptophan (Kim et al., 1994, supra).
For the preparation of membrane vesicles, 15 ml volumes of stationary phase cultures of the transformants were diluted into 1 L of fresh AHC medium and grown to an OD600 nm of about 1.2. Membrane vesicles were purified as described herein and in Kim et al. (1995, supra).
[…] μl reaction volumes containing 3 mM ATP, 3 mM MgSO4, 5 μM gramicidin-D, 10 mM creatine phosphate, 16 units/ml creatine kinase, 50 mM KCl, 1 mg/ml BSA, 400 mM sorbitol, 25 mM Tris-Mes ([…]).
as §4

[3] = target: T1, YCF1 (vacuolar membrane vesicles purified from DTY165 cells); assay: [3H]DNP-GS uptake by vacuolar membrane vesicles purified from DTY165 cells; type: biochemical
Procedure: as §5, §6

[4] = test system: vacuolar GS-X pump (vacuolar membrane vesicles, Z. mays roots); assay: GS-conjugate uptake by vacuolar membrane vesicles from roots of Z. mays; type: biochemical, Zea mays
[5] = test system: vacuolar GS-X pump (vacuolar membrane vesicles, V. radiata hypocotyls); assay: GS-conjugate uptake by vacuolar membrane vesicles from etiolated hypocotyls of V. radiata; type: biochemical, Vigna radiata
Procedure: Values shown are means ±SE (n=3).
Vacuolar membrane vesicles were purified from etiolated hypocotyls of V. radiata cv.
Unless otherwise indicated, [^3 H]medicarpin or [3H]medicarpin-GS uptake was measured at 25° C. in 200 μl reaction volumes containing 3 mM ATP, 3 mM MgSO4, 10 mM creatine phosphate, 16 U/ml creatine kinase, 50 mM KCl, 0.1% (w/v) BSA, 400 mM sorbitol and 25 mM Tris-Mes buffer, pH 8.0. Uptake was initiated by the addition of 12 μl membrane vesicles (30-40 μg protein) and brief mixing of the samples on a vortex mixer. Uptake was terminated by the addition of 1 ml ice-cold wash medium (400 mM sorbitol, 3 mM Tris-Mes, pH 8.0) and vacuum filtration of the suspension through prewetted HA cellulose nitrate filters (pore diameter 0.45 μm). The filters were rinsed twice with a 1 ml ice-cold wash medium, air-dried and radioactivity was determined by liquid scintillation counting.

[6] = test system: vacuolar GS-X pump (vacuolar membrane vesicles, V. radiata hypocotyls); settings: cited from earlier work
[7] = test system: vacuolar membrane vesicles purified from DTY167 cells (ycf1Δ mutant); type: biochemical, Saccharomyces cerevisiae; remark: listed apart in the source
Procedure: as §1, §2, §3

[8] = MgATP-dependent, uncoupler-insensitive
[9] = 50 μM 109Cd.GS2, bafilomycin A1 0.5 μM, FCCP 5 μM, gramicidin-D 5 μM, NH4Cl 1 mM
[10] = as Table 7 concentrations, 10 min
[11] = 66.2 μM DNP-GS, 3 mM MgATP (omitted with MgAMP-PNP), MgAMP-PNP 3 mM, bafilomycin A1 0.5 μM, FCCP 5 μM, gramicidin D 5 μM, NH4Cl 1 mM
[12] = as Table 1 concentrations, 10 min
[13] = gramicidin-D 5 μM, vanadate 10 μM, DNP-GS 100 μM

Molecule: N[C@@H](CCC(=O)N[C@@H](CS)C(=O)NCC(=O)O)C(=O)O [GSH, glutathione]
t1/2 of GSH stimulation of Cd2+ uptake [1]: < 5 min
MgATP-dependent, uncoupler-insensitive uptake of unconjugated precursor detectable (AtMRP2): In no case
MgATP-dependent, uncoupler-insensitive DNP-GS uptake plus compound [2]: 4.6 ± 1.1 nmol/mg/10 minutes
MgATP-dependent, uncoupler-insensitive DNP-GS uptake as percentage of control ([2]; dty167 vacuolar membrane vesicles, 10 min): 70.8
MgATP-dependent, uncoupler-insensitive uptake of unconjugated precursor detectable (AtMRP1): In no case
MgATP-dependent, uncoupler-insensitive DNP-GS uptake plus compound [3]: 50.6 ± 2.3 nmol/mg/10 minutes
MgATP-dependent, uncoupler-insensitive DNP-GS uptake as percentage of control ([3]; dty165 vacuolar membrane vesicles, 10 min): 105.6

Km (AtMRP2; [8]): 15.2 µM and 15 µM
Vmax for AtMRP2-dependent uptake (AtMRP2; [8]): 63.1 ± 2.5 nmol/mg/10 min
Km for AtMRP1-dependent uptake (AtMRP1; [8]): Linear
Molecule: C=CC1=C(C)C(Cc2[nH]c(C3c4[nH]c(Cc5[nH]c(C=O)c(C)c5CCOC(=O)CC(=O)O)c(C)c4C(=O)C3C(=O)O)c(CCC(=O)O)c2C)NC1=O (stereo not drawn) [Bn-NCC-1]

Molecule: Triton X-100
release (efflux) of accumulated [3H]DNP-GS after hexokinase trap (AtMRP2): more than 3 fold

MgATP-dependent, uncoupler-insensitive uptake of unconjugated precursor detectable (AtMRP2): In no case
MgATP-dependent, uncoupler-insensitive uptake of unconjugated precursor detectable (AtMRP1): In no case
Molecule: OC[C@H]1O[C@@H](Oc2cc3c(O)cc(O)cc3[o+]c2-c2ccc(O)c(O)c2)[C@H](O)[C@@H](O)[C@@H]1O [C3G, cyanidin-3-glucoside]

Molecule: CCc1cccc(C)c1N(C(=O)CCl)C(C)COC (stereo not drawn) [metolachlor]
MgATP-dependent, uncoupler-insensitive uptake of unconjugated precursor detectable (AtMRP2): In no case
MgATP-dependent, uncoupler-insensitive uptake of unconjugated precursor detectable (AtMRP1): In no case

rate of C3G-GS uptake (AtMRP2; 50 μM): 48.4±2.2 nmol/mg/10 min
Km ([4]; read-out: Km for MgATP-dependent, uncoupler-insensitive uptake): 39.5 ± 16.6 µM
Km ([5]; V. radiata, read-out: Km for MgATP-dependent, uncoupler-insensitive uptake): 45.7 ± 14 µM
rate of C3G-GS uptake (AtMRP1; 50 μM): 7.9±0.7
Molecule: cyanin-3-glucoside-GS [C3G-GS]
Vmax for MgATP-dependent, uncoupler-insensitive uptake [4]: 79.1 ± 14.7 nmol/mg/10 min
Vmax for MgATP-dependent, uncoupler-insensitive uptake ([5]; V. radiata): 45.3 ± 6.5 nmol/mg/10 min
Km estimated previously in this system [6]: 46 µM
Vmax of GS-X pump ([6]; comparison value for C3G-GS): 45 nmol/mg/min

Molecule: O=[N+]([O-])c1ccc(Cl)c([N+](=O)[O-])c1 [DNP]
MgATP-dependent, uncoupler-insensitive uptake of unconjugated precursor detectable (AtMRP2): In no case
MgATP-dependent, uncoupler-insensitive uptake of unconjugated precursor detectable (AtMRP1): In no case

Molecule: Gramicidin D
109Cd.GS2 uptake plus addition [1, 9]: 77.8 ± 6.4 nmol/mg/10 minutes
109Cd.GS2 uptake as percentage of control [1, 10]: 73.5%
decrease of MgATP-dependent Cd.GS2 uptake ([1]; text to Table 7): 22%
109Cd.GS2 uptake plus addition [7, 9]: 9.3 ± 2.0 nmol/mg/10 minutes
109Cd.GS2 uptake as percentage of control [7, 10]: 56.6%
DNP-GS uptake plus the compound indicated [2, 11]: 5.8 ± 0.1 nmol/mg/10 minutes
DNP-GS uptake as percentage of control plus the compound indicated [2, 12]: 37.7%
[3H]Medicarpin-GS uptake with treatment, +MgATP ([5]; 65 μM medicarpin-GS, 3 mM MgATP, gramicidin-D 5 μM, vanadate 10 μM, DNP-GS 100 μM): 71.2 ± 3.0 nmol/mg/10 minutes
[3H]Medicarpin-GS uptake with treatment, -MgATP ([5]; 65 μM medicarpin-GS, gramicidin-D 5 μM, vanadate 10 μM, DNP-GS 100 μM): 13.2 ± 2.1 nmol/mg/10 minutes
[3H]Medicarpin-GS uptake as percentage of control, +MgATP [5, 13]: 83.2%
[3H]Medicarpin-GS uptake as percentage of control, -MgATP [5, 13]: 79.0%
inhibition of MgATP-dependent [3H]medicarpin-GS uptake ([5]; vanadate 10 μM, DNP-GS 100 μM, gramicidin D): 17%
DNP-GS uptake plus the compound indicated [3, 11]: 45.8 ± 1.4 nmol/mg/10 minutes
DNP-GS uptake as percentage of control plus the compound indicated [3, 12]: 58.9%
